pEC50, pIC50, pKi: −log10 of the molar value.
How the values were obtained:
[1] = Mouse hepatocyte clearance; assay type: in vitro ADME; settings: hepatocytes
hRXRalpha = hRXRalpha (Homo sapiens, UniProt P19793); assay: hRXRalpha binding
hRORbeta = hRORbeta (Homo sapiens, UniProt Q92753); assay: hRORbeta binding
GPR40 KO mice [2] = assay: Incretin secretion assay in GPR40 KO mice; assay type: in vivo, mouse
hD1 = hD1 (Homo sapiens, UniProt P21728); assay: hD1 cAMP; assay type: cell-based; settings: read-out: hD1 cAMP Rel EC50
Rat hepatocyte clearance = assay type: in vitro ADME; settings: hepatocytes
GPR40 S123A = GPR40 S123A (Homo sapiens, UniProt O14842, S123A); assay: cAMP accumulation assay, S123A mutant
Method: (§2) HEK293 cells transiently transfected with Promega’s cAMP response element (CRE/luc2P) and a GPR40 construct were plated (40K cells/well) into 96-well microtiter plates using Dulbecco’s Modified Eagle’s Medium (DMEM) supplemented with 10% FBS, 20 mM HEPES, pH 7.4, 100 U/mL Penicillin, 100 µg/mL Streptomycin, and 800 µg/mL Geneticin. Test compounds were serially diluted three-fold in 100% DMSO and immediately diluted in media. […] EC50 values were calculated using a four-parameter logistic curve fitting equation.

human GPR40 [3] = molecular target: T1, human GPR40 (Homo sapiens, UniProt O14842); assay: Human GPR40 b-arrestin; assay type: cell-based
T1 construct: HEK293 cells stably overexpressing full length human GPR40; expressed in transfected cells

[4] = Human hepatocyte clearance; assay type: in vitro ADME; settings: hepatocytes
GPR40 Y114F = GPR40 Y114F (Homo sapiens, UniProt O14842, Y114F); assay: cAMP accumulation assay, Y114F mutant
Method: as §2

hCDK1 = hCDK1 (Homo sapiens, UniProt P06493); assay: hCDK1 binding
GPR40 Y44F = GPR40 Y44F (Homo sapiens, UniProt O14842, Y44F); assay: cAMP accumulation assay, Y44F mutant
Method: as §2

hM1 = hM1 (Homo sapiens, UniProt P11229); assay: hM1 binding; settings: read-out: hM1 binding Rel IC50
[5] = test system: GPR40 knock-out (KO) mice; assay: IPGTT in GPR40 knock-out mice; assay type: in vivo, mouse; settings: high dose of compound 1
Method: Nine to ten week old male ICR mice (Envigo) and GPR40 KO mice (Taconic) were used. The day before an IPGTT (~1600), animals were fasted in clean cages. The following morning (~0800), animals were randomized on fasting glucose and body weight (N = 6 per group). Mice were orally administered a test article or vehicle 60 min prior to an intraperitoneal (IP) injection of glucose (2g/kg). Blood glucose levels were determined by a glucometer from tail bleeds taken at 0, 15, 30, 60, and 120 min after the glucose challenge. An average of two readings were reported at each time point. Also, blood samples were collected into serum tubes at 0, 3, 6, and 15 min post glucose injection for insulin measurement. Serum tubes were centrifuged at 3000g for 5 min and serum transferred into 96-well plates for insulin analysis by a Mesoscale rat/mouse insulin assay.

human GPR40 [6] = molecular target: T1, human GPR40; assay: Human GPR40 IP1; assay type: cell-based
PPAR = PPAR binding and functional assays at multiple concentrations; settings: all PPAR binding and functional assays
GPR40 KO mice [7] = assay: OGTT in GPR40 KO mice; assay type: in vivo, mouse; settings: high dose of compound 1
Method: (§1) Eight to thirteen week old male C57BL/6 or KO mice were used. The day before the study, at 1600 hours, animals were transferred into clean cages and food was removed. The following morning (~0800 hours), mice were randomized by block randomization to treatment groups (N = 5–7 per group) so each group had similar mean and standard deviation of body weight and blood glucose. […] Animals were dosed with vehicle (0.5% MC/0.25% Tween-80) or the test article by oral gavage. Group allocations were not blinded from the experimenters who collected the data. After 60 min compound treatment animals were then given an oral gavage of glucose (2 g/kg). At 0, 15, 30, 60, and 120 min post oral glucose, two glucose readings via glucometers were obtained. The average of two glucose readings was reported at each time point. Data were expressed as mean±standard error (s.e.m.). Blood glucose values were analyzed using ANOVA with repeated measures. Cook’s distance was also calculated from linear regression. All animals were included in the analysis with their individual averaged Cook’s distance < 1. Dunnett’s comparison was performed at each time point by R program. Significance is denoted at p < 0.05.

hRORgamma = hRORgamma (Homo sapiens, UniProt P51449); assay: hRORgamma binding
hRORalpha = hRORalpha (Homo sapiens, UniProt P35398); assay: hRORalpha binding
WT GPR40 = WT GPR40 (Homo sapiens, UniProt O14842); assay: cAMP accumulation assay (CRE/luc2P), wild type GPR40
Method: as §2

hCDK2 = hCDK2 (Homo sapiens, UniProt P24941); assay: hCDK2 binding
hERalpha = hERalpha (Homo sapiens, UniProt P03372); assay: hERalpha binding
GPR120 KO mice = assay: OGTT in GPR120 KO mice; assay type: in vivo, mouse; settings: 5 mg/kg
Method: as §1

GPR40 L112F = GPR40 L112F (Homo sapiens, UniProt O14842, L112F); assay: cAMP accumulation assay, L112F mutant
Method: as §2

human GPR40 [8] = molecular target: T1, human GPR40; assay: Human GPR40 Calcium (Supplementary Table 1); assay type: cell-based
[9] = Drug exposure in plasma after oral dose in wild type C57BL/6 mice; assay type: in vivo, mouse; settings: 0.03-10 mpk, Supplementary Fig. 9
[10] = test system: GPCRs (including GPR120), NHRs and Kinases; assay: Selectivity panels against GPCRs, NHRs and Kinases

T1 sequence (O14842 whole entry): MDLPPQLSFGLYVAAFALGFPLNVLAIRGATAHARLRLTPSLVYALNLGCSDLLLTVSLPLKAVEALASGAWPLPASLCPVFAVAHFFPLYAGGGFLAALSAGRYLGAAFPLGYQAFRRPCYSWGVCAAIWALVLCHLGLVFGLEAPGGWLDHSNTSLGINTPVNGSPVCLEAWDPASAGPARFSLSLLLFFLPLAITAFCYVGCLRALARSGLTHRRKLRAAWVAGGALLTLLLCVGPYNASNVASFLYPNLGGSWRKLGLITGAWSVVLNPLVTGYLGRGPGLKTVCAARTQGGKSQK
Sequence of GPR40 L112F (O14842 whole entry L112F): as the sequence (O14842 whole entry) above, with L112F counted along it
Sequence of WT GPR40 (O14842 whole entry): as the sequence (O14842 whole entry) above
Sequence of GPR40 Y44F (O14842 whole entry Y44F): as the sequence (O14842 whole entry) above, with Y44F counted along it
Sequence of GPR40 Y114F (O14842 whole entry Y114F): as the sequence (O14842 whole entry) above, with Y114F counted along it
Sequence of GPR40 S123A (O14842 whole entry S123A): as the sequence (O14842 whole entry) above, with S123A counted along it
Sequence of hRORgamma (P51449 whole entry): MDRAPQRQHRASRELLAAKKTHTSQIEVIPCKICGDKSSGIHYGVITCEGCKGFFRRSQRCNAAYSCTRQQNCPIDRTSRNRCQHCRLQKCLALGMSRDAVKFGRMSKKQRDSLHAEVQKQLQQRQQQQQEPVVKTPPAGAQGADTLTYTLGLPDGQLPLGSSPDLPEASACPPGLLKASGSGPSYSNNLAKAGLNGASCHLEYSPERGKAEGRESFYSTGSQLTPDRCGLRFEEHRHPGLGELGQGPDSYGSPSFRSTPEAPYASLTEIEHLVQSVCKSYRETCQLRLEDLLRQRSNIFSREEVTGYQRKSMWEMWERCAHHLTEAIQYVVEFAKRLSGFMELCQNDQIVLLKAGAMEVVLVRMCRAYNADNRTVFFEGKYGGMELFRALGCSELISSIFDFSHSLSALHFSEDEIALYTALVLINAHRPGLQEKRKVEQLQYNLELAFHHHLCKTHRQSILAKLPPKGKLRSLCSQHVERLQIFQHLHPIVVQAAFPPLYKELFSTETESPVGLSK
Sequence of hCDK1 (P06493 whole entry): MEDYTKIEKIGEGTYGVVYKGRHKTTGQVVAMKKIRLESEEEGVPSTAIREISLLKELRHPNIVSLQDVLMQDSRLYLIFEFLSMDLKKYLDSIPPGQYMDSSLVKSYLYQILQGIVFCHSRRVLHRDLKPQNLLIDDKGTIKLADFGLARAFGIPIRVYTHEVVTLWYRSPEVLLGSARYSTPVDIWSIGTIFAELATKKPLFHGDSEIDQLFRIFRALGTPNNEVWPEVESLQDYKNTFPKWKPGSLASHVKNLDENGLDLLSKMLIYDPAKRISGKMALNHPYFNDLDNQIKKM
Sequence of hCDK1 (P14635 whole entry partner): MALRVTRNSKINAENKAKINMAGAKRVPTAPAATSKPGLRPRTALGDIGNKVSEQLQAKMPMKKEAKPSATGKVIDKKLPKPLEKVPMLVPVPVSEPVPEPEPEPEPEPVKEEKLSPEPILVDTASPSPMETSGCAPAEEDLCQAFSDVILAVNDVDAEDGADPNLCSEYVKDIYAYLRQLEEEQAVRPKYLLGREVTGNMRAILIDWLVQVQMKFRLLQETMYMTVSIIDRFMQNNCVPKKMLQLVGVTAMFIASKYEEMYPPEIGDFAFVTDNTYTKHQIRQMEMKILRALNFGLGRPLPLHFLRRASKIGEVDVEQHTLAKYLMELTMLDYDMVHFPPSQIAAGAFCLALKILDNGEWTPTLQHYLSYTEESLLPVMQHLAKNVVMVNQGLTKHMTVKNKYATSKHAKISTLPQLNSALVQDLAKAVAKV
Sequence of hRXRalpha (P19793 whole entry): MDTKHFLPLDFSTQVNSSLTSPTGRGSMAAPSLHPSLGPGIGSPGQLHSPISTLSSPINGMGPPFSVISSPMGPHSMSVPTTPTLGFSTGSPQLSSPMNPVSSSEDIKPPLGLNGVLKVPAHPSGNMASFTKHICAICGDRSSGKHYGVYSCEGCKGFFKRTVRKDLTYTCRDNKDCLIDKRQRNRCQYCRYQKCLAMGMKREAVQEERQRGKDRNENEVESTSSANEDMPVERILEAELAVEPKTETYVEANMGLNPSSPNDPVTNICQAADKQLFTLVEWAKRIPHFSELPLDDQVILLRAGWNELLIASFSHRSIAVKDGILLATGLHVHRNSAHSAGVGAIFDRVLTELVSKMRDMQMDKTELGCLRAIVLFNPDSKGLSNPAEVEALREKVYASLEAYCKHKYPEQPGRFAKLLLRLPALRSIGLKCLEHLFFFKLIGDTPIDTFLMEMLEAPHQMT
Sequence of hRORbeta (Q92753 whole entry): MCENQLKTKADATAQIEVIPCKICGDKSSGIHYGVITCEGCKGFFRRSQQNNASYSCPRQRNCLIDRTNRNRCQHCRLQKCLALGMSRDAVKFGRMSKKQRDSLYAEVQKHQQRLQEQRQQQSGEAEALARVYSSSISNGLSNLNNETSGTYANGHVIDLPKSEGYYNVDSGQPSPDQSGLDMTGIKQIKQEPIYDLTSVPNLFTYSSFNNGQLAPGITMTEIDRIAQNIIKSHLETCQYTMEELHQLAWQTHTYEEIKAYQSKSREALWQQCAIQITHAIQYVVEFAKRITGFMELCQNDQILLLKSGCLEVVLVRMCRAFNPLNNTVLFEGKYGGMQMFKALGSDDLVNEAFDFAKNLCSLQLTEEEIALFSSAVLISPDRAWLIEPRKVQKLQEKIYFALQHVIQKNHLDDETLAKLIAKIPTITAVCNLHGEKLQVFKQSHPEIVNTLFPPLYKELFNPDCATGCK
Sequence of hM1 (P11229 whole entry): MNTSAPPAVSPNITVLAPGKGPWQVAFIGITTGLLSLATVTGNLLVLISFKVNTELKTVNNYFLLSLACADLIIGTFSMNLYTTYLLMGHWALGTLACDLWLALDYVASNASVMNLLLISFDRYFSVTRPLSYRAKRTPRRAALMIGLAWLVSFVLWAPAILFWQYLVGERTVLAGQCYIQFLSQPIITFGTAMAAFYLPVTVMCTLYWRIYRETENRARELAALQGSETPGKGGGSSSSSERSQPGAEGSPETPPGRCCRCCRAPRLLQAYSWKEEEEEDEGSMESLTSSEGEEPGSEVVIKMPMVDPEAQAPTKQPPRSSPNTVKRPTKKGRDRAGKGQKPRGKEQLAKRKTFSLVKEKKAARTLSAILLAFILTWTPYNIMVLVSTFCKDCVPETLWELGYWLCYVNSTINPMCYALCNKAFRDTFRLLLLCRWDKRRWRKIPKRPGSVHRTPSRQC
Sequence of hD1 (P21728 whole entry): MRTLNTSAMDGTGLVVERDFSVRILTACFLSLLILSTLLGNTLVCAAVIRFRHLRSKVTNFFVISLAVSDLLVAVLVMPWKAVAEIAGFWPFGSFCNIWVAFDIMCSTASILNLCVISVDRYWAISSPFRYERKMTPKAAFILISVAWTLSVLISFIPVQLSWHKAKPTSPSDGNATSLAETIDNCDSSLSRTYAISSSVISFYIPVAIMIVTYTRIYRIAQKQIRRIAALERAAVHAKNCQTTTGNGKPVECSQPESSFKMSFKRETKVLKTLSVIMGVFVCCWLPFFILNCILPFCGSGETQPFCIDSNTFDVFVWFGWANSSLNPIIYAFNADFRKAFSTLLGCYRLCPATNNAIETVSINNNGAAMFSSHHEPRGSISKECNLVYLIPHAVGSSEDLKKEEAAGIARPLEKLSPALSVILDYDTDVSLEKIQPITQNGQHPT
Sequence of hERalpha (P03372 whole entry): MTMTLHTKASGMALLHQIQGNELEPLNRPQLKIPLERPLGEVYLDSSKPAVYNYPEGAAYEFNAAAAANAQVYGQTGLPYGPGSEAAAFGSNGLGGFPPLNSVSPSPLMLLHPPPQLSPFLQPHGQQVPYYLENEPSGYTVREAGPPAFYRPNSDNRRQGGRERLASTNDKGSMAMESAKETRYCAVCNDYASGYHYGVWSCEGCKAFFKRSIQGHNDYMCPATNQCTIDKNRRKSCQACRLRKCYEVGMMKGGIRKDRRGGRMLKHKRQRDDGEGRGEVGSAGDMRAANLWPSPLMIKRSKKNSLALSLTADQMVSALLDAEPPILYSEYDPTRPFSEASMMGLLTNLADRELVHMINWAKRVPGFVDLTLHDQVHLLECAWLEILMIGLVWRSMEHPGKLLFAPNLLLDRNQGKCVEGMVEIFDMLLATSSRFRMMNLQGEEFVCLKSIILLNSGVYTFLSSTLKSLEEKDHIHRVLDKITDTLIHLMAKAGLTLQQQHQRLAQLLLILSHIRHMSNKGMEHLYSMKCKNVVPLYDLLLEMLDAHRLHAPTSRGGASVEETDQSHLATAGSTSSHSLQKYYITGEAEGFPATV
Sequence of hRORalpha (P35398 whole entry): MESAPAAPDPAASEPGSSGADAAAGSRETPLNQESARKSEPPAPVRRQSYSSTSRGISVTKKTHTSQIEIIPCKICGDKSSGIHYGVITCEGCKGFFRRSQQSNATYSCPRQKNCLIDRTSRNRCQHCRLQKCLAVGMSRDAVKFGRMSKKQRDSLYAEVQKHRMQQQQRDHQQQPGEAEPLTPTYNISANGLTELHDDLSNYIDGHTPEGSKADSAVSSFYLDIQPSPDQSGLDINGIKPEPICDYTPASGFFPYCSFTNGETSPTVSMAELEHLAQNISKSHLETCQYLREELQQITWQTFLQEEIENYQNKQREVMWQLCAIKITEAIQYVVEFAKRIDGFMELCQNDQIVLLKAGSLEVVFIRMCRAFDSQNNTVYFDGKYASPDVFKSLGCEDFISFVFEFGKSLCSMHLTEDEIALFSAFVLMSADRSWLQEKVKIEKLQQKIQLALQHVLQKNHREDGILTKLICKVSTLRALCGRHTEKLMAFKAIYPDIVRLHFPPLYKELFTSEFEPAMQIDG

COc1ccc(C(=O)N(CC(C)(C)C)c2cccc(C)n2)c(N2CCC(c3cc4ccc([C@@H](CC(=O)O)C5CC5)cc4o3)CC2)c1 [compound 1]
recovery ([1]; no ABT, read-out: Mouse Hepatocyte Clearance no ABT % Recovery): 103% | hepatocyte CLint ([1]; no ABT, read-out: Mouse Hepatocyte Clearance no ABT Intrinsic Clearance): 9.2 µL/min/1e6 cells | recovery ([1]; with ABT (concentration not stated), read-out: Mouse Hepatocyte Clearance ABT % Recovery): 92.8% | hepatocyte CLint ([1]; with ABT, read-out: Mouse Hepatocyte Clearance ABT Intrinsic Clearance): 12.4 µL/min/1e6 cells | pKi (hRXRalpha): < 5.00 | pKi (hRORbeta): < 4.89 | plasma active GIP concentrations, GPR40 KO (GPR40 KO mice [2]): no effect | plasma total GLP-1 concentrations, GPR40 KO (GPR40 KO mice [2]): no effect | pEC50 (hD1): < 4.10 | recovery (Rat hepatocyte clearance; no ABT, read-out: Rat Hepatocyte Clearance no ABT % Recovery): 103% | hepatocyte CLint (Rat hepatocyte clearance; no ABT, read-out: Rat Hepatocyte Clearance no ABT Intrinsic Clearance): 12.2 µL/min/1e6 cells | recovery (Rat hepatocyte clearance; with ABT (concentration not stated), read-out: Rat Hepatocyte Clearance ABT % Recovery): 92.8% | hepatocyte CLint (Rat hepatocyte clearance; with ABT, read-out: Rat Hepatocyte Clearance ABT Intrinsic Clearance): 3 µL/min/1e6 cells | pEC50 (GPR40 S123A): < 4.52 | pEC50 (human GPR40 [3]): 8.72 | Emax (human GPR40 [3]): 172% | recovery ([4]; no ABT, read-out: Human Hepatocyte Clearance no ABT % Recovery): 103% | hepatocyte CLint ([4]; no ABT, read-out: Human Hepatocyte Clearance no ABT Intrinsic Clearance): 8.8 µL/min/1e6 cells | recovery ([4]; with ABT (concentration not stated), read-out: Human Hepatocyte Clearance ABT % Recovery): 92.8% | hepatocyte CLint ([4]; with ABT, read-out: Human Hepatocyte Clearance ABT Intrinsic Clearance): < 1.8 µL/min/1e6 cells | pEC50 (GPR40 Y114F): 4.96 | pIC50 (hCDK1): < 4.70 | pEC50 (GPR40 Y44F): < 4.52 | pIC50 (hM1): < 5.00 | glucose lowering in IPGTT, GPR40 KO [5]: not observed | insulin secretion in IPGTT, GPR40 KO [5]: not observed | pEC50 (human GPR40 [6]): > 10.30 | Emax (human GPR40 [6]): 484% | PPAR binding or functional activities (PPAR): lack of significant PPAR binding or functional activities | blood glucose in OGTT, GPR40 KO (GPR40 KO mice [7]): No change in blood glucose | pKi (hRORgamma): < 4.70 | pKi (hRORalpha): < 4.70 | pEC50 (WT GPR40; cAMP accumulation EC50, GPR40-Gαs signaling, stably transfected cells, Fig. 1c, n = 6): ~6.90 | pEC50 (WT GPR40; cAMP accumulation EC50, WT, Fig. 6c-e, n = 3): 6.68 | pIC50 (hCDK2): < 4.70 | pKi (hERalpha): < 4.96 | glucose excursion in OGTT, GPR120 KO (GPR120 KO mice): significant decrease in glucose excursion | pEC50 (GPR40 L112F): 7.22 | improvement in EC50 in L112F mutant over wild type (GPR40 L112F; cAMP accumulation, 240 min): 3 fold | Emax (human GPR40 [8]): 110% | pharmacokinetics in mouse (drug exposures in plasma) [9]: dose proportional | selectivity in selectivity panels [10]: highly selective
